Laboratory results reported in the supplement of paper PMC13380429.

Legend:
Settings in all cases: 72 h
Calu-3 [1] = experiment: drug sensitivity score (DSS) for viability; higher = more toxic; extreme values may be limits of the assay
U2OS [2] = experiment: as above
Vero E6 [3] = experiment: as above
Caco-2 [4] = experiment: as above
HepG2 [5] = experiment: as above
Calu-3 [6] = experiment: cell viability relative to DMSO; higher = less toxic
U2OS [7] = experiment: as above
Vero E6 [8] = experiment: as above
Caco-2 [9] = experiment: as above
HepG2 [10] = experiment: as above
Calu-3 [11] = experiment: relative viability EC50 (midpoint between 100% and the lowest measured viability); higher = less toxic
U2OS [12] = experiment: as above
Vero E6 [13] = experiment: as above
Caco-2 [14] = experiment: as above
HepG2 [15] = experiment: as above

SMILES	drug sensitivity score (Calu-3 [1])	drug sensitivity score (U2OS [2])	drug sensitivity score (Vero E6 [3])	drug sensitivity score (Caco-2 [4])	drug sensitivity score (HepG2 [5])	cell viability (Calu-3 [6]; 1 nM) [%]	cell viability (Calu-3 [6]; 10 nM) [%]	cell viability (Calu-3 [6]; 100 nM) [%]	cell viability (Calu-3 [6]; 1000 nM) [%]	cell viability (Calu-3 [6]; 10000 nM) [%]	cell viability (U2OS [7]; 1 nM) [%]	cell viability (U2OS [7]; 10 nM) [%]	cell viability (U2OS [7]; 100 nM) [%]	cell viability (U2OS [7]; 1000 nM) [%]	cell viability (U2OS [7]; 10000 nM) [%]	cell viability (Vero E6 [8]; 1 nM) [%]	cell viability (Vero E6 [8]; 10 nM) [%]	cell viability (Vero E6 [8]; 100 nM) [%]	cell viability (Vero E6 [8]; 1000 nM) [%]	cell viability (Vero E6 [8]; 10000 nM) [%]	cell viability (Caco-2 [9]; 1 nM) [%]	cell viability (Caco-2 [9]; 10 nM) [%]	cell viability (Caco-2 [9]; 100 nM) [%]	cell viability (Caco-2 [9]; 1000 nM) [%]	cell viability (Caco-2 [9]; 10000 nM) [%]	cell viability (HepG2 [10]; 1 nM) [%]	cell viability (HepG2 [10]; 10 nM) [%]	cell viability (HepG2 [10]; 100 nM) [%]	cell viability (HepG2 [10]; 1000 nM) [%]	cell viability (HepG2 [10]; 10000 nM) [%]	relative viability EC50 (Calu-3 [11]) [µM]	relative viability EC50 (U2OS [12]) [µM]	relative viability EC50 (Vero E6 [13]) [µM]	relative viability EC50 (Caco-2 [14]) [µM]	relative viability EC50 (HepG2 [15]) [µM]
Nc1c2c(nc3c1CCC3)CCCC2 [ipidacrine]	0	0	0	0	0	99.2	99.9	88.6	90.9	100	96.8	93.4	103	94.8	99.4	96.5	96.4	95.8	94.7	108	84.5	96.4	96.3	91.8	106	101	99.9	104	94.6	109	> 10	> 10	> 10	> 10	> 10
CCCN(CCC)C(=O)C1=Cc2ccc(-c3ccc(C(=O)N4CCCC4)cc3)cc2N=C(N)C1 [motolimod]	0	0	0	0	2.5	121	103	112	112	98.1	106	101	99.6	98.1	92	102	102	98.1	99.2	91.6	102	106	124	109	100	107	113	89.7	114	40.6	> 10	> 10	> 10	> 10	4
CC(C)S(=O)(=O)NC[C@H](C)c1ccc(-c2ccc(CCNS(C)(=O)=O)cc2)cc1 [mibampator]	0.2	0	0	0.3	5.7	101	107	99.9	99.9	86.2	99.1	102	100	104	94.1	90.8	98	95.1	94	95.6	96.4	100	101	103	83	107	105	101	88.2	32.6	> 10	> 10	> 10	> 10	1.85
COc1cc(-c2ccc(=O)[nH]n2)ccc1OC(F)F [zardaverine]	0.3	0	0	0	0	108	95.9	89.5	92.4	89.4	97.8	95.8	103	98	99.2	95.5	101	94.5	93	92.6	87.1	90	96.9	96.3	104	93.8	110	95.7	106	99.7	> 10	> 10	> 10	> 10	> 10
CC(C)c1cc(-c2n[nH]c(=O)n2-c2ccc3c(ccn3C)c2)c(O)cc1O [ganetespib]	19.1	30.2	19.9	21.3	35.3	91.5	95.9	47.8	35.7	32.5	98.4	96.7	3.7	3.4	1.5	101	107	46.3	25.9	29.1	99.9	95.4	37.4	35.2	29.3	97.7	56.6	2.3	1.2	1.1	0.0478	0.0307	0.0685	0.0369	0.0114
CC[C@H](C)[C@H](N)C(=O)O [isoleucine]	0	0	0	0	0	101	89.1	91.1	99.9	103	101	96.8	96.3	107	106	92.1	97.3	96.4	95.4	106	88.4	100	99.3	94.5	108	99.5	95.6	104	90.8	97.4	> 10	> 10	> 10	> 10	> 10
Nc1nccc(/C=C/c2ccccc2)n1 [TCN238]	0	0	0	0.4	0	98.7	97.9	99.4	102	103	96	99.9	97.6	103	97.5	104	98.6	101	97.7	103	89.6	98	89.2	100	83.2	110	92.9	112	97.3	105	> 10	> 10	> 10	> 10	> 10
